Results as given in patent publication US9670206B2, “Pyrido[4,3-B]pyrazine-2-carboxamides as neurogenic agents for the treatment of neurodegenerative disorders” (Hoffmann-La Roche Inc., priority 2013, dated 2017).

Each molecule was assayed on human embryonic stem cell derived neural stem cells (NSCs) (assay: Neural stem cell proliferation assay (neurogenesis assay, ATP levels by CellTiterGlo)). Details: 96 h, compound concentration at which 150% activity of control (100%) is reached, NSC proliferation, ATP readout after 4 days incubation.
Format: cell-based
Procedure: Neural Stem Cell Proliferation Assay
Neurogenic properties of small molecules are determined based on the proliferation of human embryonic stem cell derived neural stem cells (NSCs) which were derived via a dual smad inhibition as previously described (Chambers, S. M., et al., Highly efficient neural conversion of human ES and iPS cells by dual inhibition of SMAD signaling, Nature biotechnology, 2009. 27(3): p. 275-80.) Compounds respond is measured by the increase in cells based on ATP levels (Promega:CellTiterGlo®) after an incubation period of 4 days. NSCs are thawed and expanded over 3 passages. On the 14th day, NSCs are seeded in Polyornithin/Laminin coated 384 well plates at a cell density of 21,000 cells/cm^2 in a media volume of 38 μl. 4 hours after cell seeding, compound solutions are added at a volume of 2 μl. Stock solutions of the compounds (water, 5% DMSO) are diluted to obtain a dose response (11 points, dilution factor is 2), ranging from 8 μM to 8 nM. Controls are run to consistently determine the neurogenic properties of the cells: Negative (neutral) control is cell culture Media (final DMSO concentration: 0.25%). Positive controls are: • 1. cell culture Media+100 ng/ml FGF2 (final DMSO concentration: 0.1%) • 2. cell culture Media+20 ng/ml EGF (final DMSO concentration: 0.1%) • 3. cell culture Media+100 ng/ml Wnt3a (final DMSO concentration: 0.1%) After 4 days incubation at 37° C., 5% CO2, the amount of ATP per well is quantified. The ATP concentration is proportional to the cell number. ATP is quantified by using the Promega CellTiterGlo® kit. The CellTiterGlo® reagents contain a cell lysis buffer, a thermo stable luciferase (UltraGlo™ recombinant luciferase), magnesium and luciferin. Luciferin reacts with ATP producing oxyluciferin, AMP and light. The luminescence signal is proportional to the ATP content. The value of negative (neutral) control is determined for each assay plate by taking the average of 16 negative control wells. The neurogenic compound response is calculated for each compound as (compound/Negative Control)*100. The values of EC150 from the dose response curve are determined for each test compound. The EC150 is the compound concentration at which 150% activity of control (100%) is reached.

| SMILES | EC (150% of control) |
| --- | --- |
| NC(=O)c1cnc2cncc(-c3ccc(OC(F)(F)F)cc3)c2n1 [Example 19, 8-(4-(Trifluoromethoxy)phenyl)pyrido[4,3-b]pyrazine-2-carboxamide] | 0.09 µM |
| NC(=O)c1cnc2cncc(-c3cc(F)c(F)c(F)c3)c2n1 [Example 15, 8-(3,4,5-Trifluorophenyl)pyrido[4,3-b]pyrazine-2-carboxamide] | 0.55 µM |
| N#CC1(NC(=O)c2cnc3cncc(-c4ccc(Cl)cc4)c3n2)CC1 [Example 7, 8-(4-Chlorophenyl)-N-(1-cyanocyclopropyl)pyrido[4,3-b]pyrazine-2-carboxamide] | 0.39 µM |
| Cc1ccc(-c2cncc3ncc(C(=O)NC(C)C(C)(C)O)nc23)cn1 (stereo not shown) [Example 51, N-(3-Hydroxy-3-methylbutan-2-yl)-8-(6-methylpyridin-3-yl)pyrido[4,3-b]pyrazine-2-carboxamide] | 0.08 µM |
| O=C(NCc1ccccc1)c1cnc2cncc(-c3ccc(Cl)cc3)c2n1 [Example 12, N-Benzyl-8-(4-chlorophenyl)pyrido[4,3-b]pyrazine-2-carboxamide] | 0.26 µM |
| O=C(c1cnc2cncc(-c3ccc(Cl)cc3)c2n1)N1CCC(O)C1 (stereo not shown) [Example 30, (8-(4-Chlorophenyl)pyrido[4,3-b]pyrazin-2-yl)(3-hydroxypyrrolidin-1-yl)methanone] | 0.69 µM |
| O=C(c1cnc2cncc(-c3ccc(Cl)c(F)c3)c2n1)N1CCC(O)C1 (stereo not shown) [Example 44, (8-(4-Chloro-3-fluorophenyl)pyrido[4,3-b]pyrazin-2-yl)(3-hydroxypyrrolidin-1-yl)methanone] | 0.27 µM |
| CC(NC(=O)c1cnc2cncc(-c3ccccc3Cl)c2n1)C(C)(C)O (stereo not shown) [Example 37, 8-(2-Chlorophenyl)-N-(3-hydroxy-3-methylbutan-2-yl)pyrido[4,3-b]pyrazine-2-carboxamide] | 1.13 µM |
| CC(NC(=O)c1cnc2cncc(-c3ccnn3C)c2n1)C(C)(C)O (stereo not shown) [Example 49, N-(3-Hydroxy-3-methylbutan-2-yl)-8-(1-methyl-1H-pyrazol-5-yl)pyrido[4,3-b]pyrazine-2-carboxamide] | 0.02 µM |
| O=C(NCc1ccccc1)c1cnc2cncc(-c3ccc(C(F)(F)F)cc3)c2n1 [Example 11, N-Benzyl-8-(4-(trifluoromethyl)phenyl)pyrido[4,3-b]pyrazine-2-carboxamide] | 0.41 µM |
| NC(=O)c1cnc2cncc(-c3ccc(C(F)(F)F)cc3)c2n1 [Example 2, 8-(4-(Trifluoromethyl)phenyl)pyrido[4,3-b]pyrazine-2-carboxamide] | 0.3 µM |
| O=C(NCc1ccccc1)c1cnc2cncc(-c3cccnc3)c2n1 [Example 31, N-Benzyl-8-(pyridin-3-yl)pyrido[4,3-b]pyrazine-2-carboxamide] | 0.47 µM |
| CC(NC(=O)c1cnc2cncc(-c3ccc(C(F)(F)F)cc3)c2n1)C(C)(C)O (stereo not shown) [Example 6, N-(3-Hydroxy-3-methylbutan-2-yl)-8-(4-(trifluoromethyl)phenyl)pyrido[4,3-b]pyrazine-2-carboxamide] | 0.38 µM |
| NC(=O)c1cnc2cncc(-c3ccc(F)c(F)c3)c2n1 [Example 27, 8-(3,4-Difluorophenyl)pyrido[4,3-b]pyrazine-2-carboxamide] | 0.12 µM |
| NC(=O)c1cnc2cncc(-c3ccc(Cl)c(F)c3)c2n1 [Example 23, 8-(4-Chloro-3-fluorophenyl)pyrido[4,3-b]pyrazine-2-carboxamide] | 0.1 µM |
| O=C(c1cnc2cncc(-c3ccc(C(F)(F)F)c(F)c3)c2n1)N1CCC(O)C1 (stereo not shown) [Example 52, (8-(3-Fluoro-4-(trifluoromethyl)phenyl)pyrido[4,3-b]pyrazin-2-yl)(3-hydroxypyrrolidin-1-yl)methanone] | 0.07 µM |

| SMILES | EC (150% of control) |
| --- | --- |
| NC(=O)c1cnc2cncc(-c3cc(C(F)(F)F)ccc3F)c2n1 [Example 20, 8-(2-Fluoro-5-(trifluoromethyl)phenyl)pyrido[4,3-b]pyrazine-2-carboxamide] | 0.22 µM |
| O=C(c1cnc2cncc(-c3ccc(C(F)(F)F)cc3)c2n1)N1CCS(=O)(=O)CC1 [Example 33, (1,1-Dioxo-1,4-thiazinan-4-yl)-[8-[4-(trifluoromethyl)phenyl]pyrido[3,4-b]pyrazin-2-yl]methanone] | 1.65 µM |
| NC(=O)c1cnc2cncc(-c3ccc(CO)cc3)c2n1 [Example 29, 8-(4-(Hydroxymethyl)phenyl)pyrido[4,3-b]pyrazine-2-carboxamide] | 0.05 µM |
| O=C(c1cnc2cncc(-c3ccc(Cl)cc3)c2n1)N1CCS(=O)(=O)CC1 [Example 32, [8-(4-Chlorophenyl)pyrido[3,4-b]pyrazin-2-yl]-(1,1-dioxo-1,4-thiazinan-4-yl)methanone] | 0.84 µM |
| CC(NC(=O)c1cnc2cncc(-c3ccc(Cl)c(F)c3)c2n1)C(C)(C)O (stereo not shown) [Example 46, 8-(4-Chloro-3-fluorophenyl)-N-(3-hydroxy-3-methylbutan-2-yl)pyrido[4,3-b]pyrazine-2-carboxamide] | 0.29 µM |
| N#CC1(NC(=O)c2cnc3cncc(Br)c3n2)CC1 [Example 3, 8-Bromo-N-(1-cyanocyclopropyl)pyrido[4,3-b]pyrazine-2-carboxamide] | 2.32 µM |
| O=C(c1cnc2cncc(-c3ccc(CO)cc3)c2n1)N1CCC(O)C1 (stereo not shown) [Example 48, (8-(4-(Hydroxymethyl)phenyl)pyrido[4,3-b]pyrazin-2-yl)(3-hydroxypyrrolidin-1-yl)methanone] | 0.67 µM |
| O=C(c1cnc2cncc(-c3cccc(OC(F)(F)F)c3)c2n1)N1CCC(O)C1 (stereo not shown) [Example 41, (3-Hydroxypyrrolidin-1-yl)(8-(3-(trifluoromethoxy)phenyl)pyrido[4,3-b]pyrazin-2-yl)methanone] | 0.6 µM |
| N#CC1(NC(=O)c2cnc3cncc(-c4ccc(C(F)(F)F)cc4)c3n2)CC1 [Example 8, N-(1-Cyanocyclopropyl)-8-(4-(trifluoromethyl)phenyl)pyrido[4,3-b]pyrazine-2-carboxamide] | 0.39 µM |
| O=C(c1cnc2cncc(Br)c2n1)N1CCOCC1 [Example 4, (8-Bromopyrido[4,3-b]pyrazin-2-yl)(morpholino)methanone] | 0.07 µM |
| NC(=O)c1cnc2cncc(-c3ccc(Cl)nc3)c2n1 [Example 18, 8-(6-Chloropyridin-3-yl)pyrido[4,3-b]pyrazine-2-carboxamide] | 0.21 µM |
| CC(NC(=O)c1cnc2cncc(-c3ccc(Cl)cc3Cl)c2n1)C(C)(C)O (stereo not shown) [Example 36, 8-(2,4-Dichlorophenyl)-N-(3-hydroxy-3-methylbutan-2-yl)pyrido[4,3-b]pyrazine-2-carboxamide] | 1.5 µM |
| N#Cc1ccc(-c2cncc3ncc(C(N)=O)nc23)cc1 [Example 34, 8-(4-Cyanophenyl)pyrido[4,3-b]pyrazine-2-carboxamide] | 0.15 µM |
| NC(=O)c1cnc2cncc(-c3cccc(OC(F)(F)F)c3)c2n1 [Example 21, 8-(3-(Trifluoromethoxy)phenyl)pyrido[4,3-b]pyrazine-2-carboxamide] | 0.21 µM |
| NC(=O)c1cnc2cncc(-c3ccc(Cl)cc3)c2n1 [Example 1, 8-(4-Chlorophenyl)pyrido[4,3-b]pyrazine-2-carboxamide] | 0.21 µM |
